# Results as given in ChEMBL document CHEMBL5543153, “Discovery of a Potent Dual Son of Sevenless 1 (SOS1) and Epidermal Growth Factor Receptor (EGFR) Inhibitor for the Treatment of Prostate Cancer” (J Med Chem, 2024).
# pIC50: −log10 of the molar value. Calls of active or inactive are those of the source. The calls are words filed in the database; no cut-off is given here.
# Key:
# [1] = molecular target: T1, Epidermal growth factor receptor (Homo sapiens, UniProt P00533); test: Inhibition of EGFR (unknown origin) using ultra ULight GT peptide as substrate incubated for 2 hrs
# T1 sequence (P00533 whole entry): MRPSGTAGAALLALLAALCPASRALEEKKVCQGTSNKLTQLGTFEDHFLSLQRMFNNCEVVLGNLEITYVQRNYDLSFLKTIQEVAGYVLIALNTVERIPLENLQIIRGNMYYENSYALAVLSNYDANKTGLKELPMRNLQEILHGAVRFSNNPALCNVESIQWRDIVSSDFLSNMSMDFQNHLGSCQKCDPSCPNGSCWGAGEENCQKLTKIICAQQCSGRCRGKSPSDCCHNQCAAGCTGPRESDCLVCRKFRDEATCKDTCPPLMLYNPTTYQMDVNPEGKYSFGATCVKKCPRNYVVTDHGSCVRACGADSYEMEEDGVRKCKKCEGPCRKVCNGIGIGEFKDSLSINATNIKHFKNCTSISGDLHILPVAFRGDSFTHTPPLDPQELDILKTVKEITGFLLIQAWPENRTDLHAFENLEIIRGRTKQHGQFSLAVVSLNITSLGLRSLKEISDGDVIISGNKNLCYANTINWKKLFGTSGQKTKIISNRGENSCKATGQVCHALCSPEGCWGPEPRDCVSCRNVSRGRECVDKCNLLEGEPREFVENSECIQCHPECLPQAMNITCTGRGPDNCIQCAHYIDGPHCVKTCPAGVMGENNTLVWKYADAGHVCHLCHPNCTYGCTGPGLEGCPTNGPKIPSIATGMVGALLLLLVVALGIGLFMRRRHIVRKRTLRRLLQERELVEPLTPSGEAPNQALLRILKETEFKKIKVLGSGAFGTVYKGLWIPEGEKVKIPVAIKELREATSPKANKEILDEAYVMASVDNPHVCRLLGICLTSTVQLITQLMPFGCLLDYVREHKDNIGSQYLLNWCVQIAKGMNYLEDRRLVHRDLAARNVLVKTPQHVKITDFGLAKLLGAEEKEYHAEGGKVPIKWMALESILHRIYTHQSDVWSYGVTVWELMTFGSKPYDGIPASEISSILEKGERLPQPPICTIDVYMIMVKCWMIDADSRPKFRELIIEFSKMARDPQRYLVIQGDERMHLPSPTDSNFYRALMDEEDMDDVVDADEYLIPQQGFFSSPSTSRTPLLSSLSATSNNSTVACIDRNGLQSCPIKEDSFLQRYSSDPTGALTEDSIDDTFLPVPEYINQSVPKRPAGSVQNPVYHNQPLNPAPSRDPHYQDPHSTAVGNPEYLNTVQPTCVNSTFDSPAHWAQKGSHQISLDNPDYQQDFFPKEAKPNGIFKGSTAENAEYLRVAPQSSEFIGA
# DLD-1 = test: Antiproliferative activity against human DLD-1 cells assessed as inhibition of cell growth incubated for 72 hrs by MTT assay; format: functional, cell-based
# HepG2 = test: Antiproliferative activity against human HepG2 cells assessed as inhibition of cell growth incubated for 72 hrs by MTT assay; format: functional, cell-based
# [2] = molecular target: T2, Son of sevenless homolog 1 (Homo sapiens) (UniProt Q07889); test: Inhibition of SOS1 in human PC-3 cells assessed as downregulation of RAS-GTP expression at 12.5 uM incubated for 15 mins by Western blotting analysis; format: cell-based
# T2 sequence (whole entry): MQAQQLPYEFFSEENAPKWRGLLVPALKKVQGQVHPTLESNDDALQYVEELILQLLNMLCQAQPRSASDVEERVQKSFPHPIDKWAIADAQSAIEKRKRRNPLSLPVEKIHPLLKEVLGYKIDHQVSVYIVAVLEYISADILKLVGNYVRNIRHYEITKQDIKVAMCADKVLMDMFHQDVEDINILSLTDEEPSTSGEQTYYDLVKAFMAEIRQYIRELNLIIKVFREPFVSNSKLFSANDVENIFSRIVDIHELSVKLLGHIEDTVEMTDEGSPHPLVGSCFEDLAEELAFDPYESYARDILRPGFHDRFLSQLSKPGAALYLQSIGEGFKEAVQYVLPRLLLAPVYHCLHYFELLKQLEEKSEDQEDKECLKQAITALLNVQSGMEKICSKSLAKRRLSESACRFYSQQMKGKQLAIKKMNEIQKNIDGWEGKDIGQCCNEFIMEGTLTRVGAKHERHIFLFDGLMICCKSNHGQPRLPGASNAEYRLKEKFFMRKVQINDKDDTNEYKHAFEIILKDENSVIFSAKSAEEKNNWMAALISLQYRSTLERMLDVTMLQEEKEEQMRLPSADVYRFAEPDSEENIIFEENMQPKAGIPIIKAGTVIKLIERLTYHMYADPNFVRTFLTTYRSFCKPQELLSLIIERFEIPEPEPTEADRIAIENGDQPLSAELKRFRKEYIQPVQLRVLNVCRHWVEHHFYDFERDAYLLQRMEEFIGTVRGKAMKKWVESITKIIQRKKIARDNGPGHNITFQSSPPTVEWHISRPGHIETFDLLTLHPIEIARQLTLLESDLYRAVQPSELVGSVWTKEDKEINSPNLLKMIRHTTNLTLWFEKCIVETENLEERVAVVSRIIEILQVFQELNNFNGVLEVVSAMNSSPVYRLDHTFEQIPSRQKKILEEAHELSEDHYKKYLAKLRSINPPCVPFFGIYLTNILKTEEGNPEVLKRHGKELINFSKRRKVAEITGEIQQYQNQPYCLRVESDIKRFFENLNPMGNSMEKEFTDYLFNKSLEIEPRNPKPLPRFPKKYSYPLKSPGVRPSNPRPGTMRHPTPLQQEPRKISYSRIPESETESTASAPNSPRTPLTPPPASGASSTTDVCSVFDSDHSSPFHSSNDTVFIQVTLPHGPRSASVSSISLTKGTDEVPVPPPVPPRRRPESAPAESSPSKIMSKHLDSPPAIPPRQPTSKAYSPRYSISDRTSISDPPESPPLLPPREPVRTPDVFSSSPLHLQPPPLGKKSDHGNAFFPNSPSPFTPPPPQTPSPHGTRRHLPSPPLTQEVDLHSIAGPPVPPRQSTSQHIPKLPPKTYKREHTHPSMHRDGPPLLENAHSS
# [3] = molecular target: T2, Son of sevenless homolog 1 (Homo sapiens); test: Inhibition of SOS1 in human PC-3 cells assessed as downregulation of ERK phosphorylation at 0.5 uM incubated for 15 mins by Western blotting analysis; format: cell-based
# [4] = molecular target: T2, Son of sevenless homolog 1 (Homo sapiens); test: Inhibition of SOS1 in human PC-3 cells assessed as downregulation of ERK phosphorylation at 12.5 uM incubated for 15 mins by Western blotting analysis; format: cell-based
# [5] = molecular target: T1, Epidermal growth factor receptor; test: Inhibition of EGFR in human PC-3 cells assessed as downregulation of EGF-mediated AKT phosphorylation at 12.5 uM incubated for 15 mins in presence of EGF by Western blotting analysis; format: cell-based
# PC-3 [6] = test: Induction of apoptosis in human PC-3 cells assessed as early apoptotic cells at 0.5 uM by Annexin V-FITC staining based flow cytometry (reference value: 2.64%); format: functional
# PC-3 [7] = test: Induction of apoptosis in human PC-3 cells assessed as late apoptotic cells at 0.5 uM by Annexin V-FITC staining based flow cytometry (reference value: 1.93%); format: functional
# PC-3 [8] = test: Induction of apoptosis in human PC-3 cells assessed as late apoptotic cells at 12.5 uM by Annexin V-FITC staining based flow cytometry (reference value: 1.93%); format: functional
# PC-3 [9] = test: Induction of cell cycle arrest in human PC-3 cells assessed as accumulation of cells at S phase at 0.5 uM by PI staining based flow cytometry (reference value: 16.58%); format: functional
# PC-3 [10] = test: Induction of cell cycle arrest in human PC-3 cells assessed as accumulation of cells at S phase at 12.5 uM by PI staining based flow cytometry (reference value: 16.58%); format: functional
# HUVEC [11] = test: Antiangiogenic activity in HUVEC cells assessed as reduction in total branching length at 0.5 to 12.5 uM incubated for 8 hrs by matrigel based microscopic analysis; format: functional, cell-based; conditions: Homo sapiens, dose 0.5-12.5 µM
# HUVEC [12] = test: Antiangiogenic activity in HUVEC cells assessed as reduction of mean mesh at 0.5 to 12.5 uM incubated for 8 hrs by matrigel based microscopic analysis; format: functional, cell-based; conditions: Homo sapiens, dose 0.5-12.5 µM
# PC-3 [13] = test: Antitumor activity against human PC-3 cells xenografted in BALB/c mouse assessed as reduction in tumor volume at 20 mg/kg,ip administrated once every 4 days for 24 days; format: functional, organism-based; conditions: time 24.0 day
# PC-3 [14] = test: Antitumor activity against human PC-3 cells xenografted in BALB/c mouse assessed as reduction in tumor weight at 20 mg/kg,ip administrated once every 4 days for 24 days; format: functional, organism-based; conditions: time 24.0 day
# [15] = Toxicity in BALB/c mouse xenografted with human PC-3 cells assessed as change in body weight at 20 mg/kg,ip administrated once every 4 days for 24 days; format: organism-based; conditions: in vivo, 576 h, time 24 day
# [16] = Toxicity in BALB/c mouse xenografted with human PC-3 cells assessed as liver pathological change at 5 mg/kg,ip administrated once every 4 days for 24 days by hematoxylin and eosin staining based analysis; format: organism-based; conditions: in vivo, 576 h, time 24 day
# [17] = Toxicity in BALB/c mouse xenografted with human PC-3 cells assessed as lung pathological change at 20 mg/kg,ip administrated once every 4 days for 24 days by hematoxylin and eosin staining based analysis; format: organism-based; conditions: in vivo, 576 h, time 24 day
# [18] = Toxicity in BALB/c mouse xenografted with human PC-3 cells assessed as kidney pathological change at 20 mg/kg,ip administrated once every 4 days for 24 days by hematoxylin and eosin staining based analysis; format: organism-based; conditions: in vivo, 576 h, time 24 day
# [19] = Toxicity in BALB/c mouse xenografted with human PC-3 cells assessed as change in creatinine level at 20 mg/kg,ip administrated once every 4 days for 24 days by automatic biochemical analyzer; format: organism-based; conditions: in vivo, 576 h, time 24 day
smiles,measurement,setting,value
COc1cc2ncnc(N[C@H](C)c3cccc(F)c3)c2cc1OC1CCOCC1,pIC50,[1],9.00
same,Activity,DLD-1,Active
same,Activity,HepG2,Active
same,inhibition,[2],Active
same,inhibition,[3],Active
same,inhibition,[4],Active
same,inhibition,[5],Active
same,Activity,PC-3 [6],11.7%
same,Activity,PC-3 [7],2.74%
same,Activity,PC-3 [8],4.07%
same,Activity,PC-3 [9],10.84%
same,Activity,PC-3 [10],6.67%
same,Activity,HUVEC [11],Active
same,Activity,HUVEC [12],Active
same,Activity,PC-3 [13],Active
same,Activity,PC-3 [14],Active
same,Activity,[15],Toxic
same,Activity,[16],Toxic
same,Activity,[17],Toxic
same,Activity,[18],Toxic
same,Activity,[19],Non-Toxic
